Test results taken from patent publication US20230123334A1, “AMINO LIPID COMPOUND, PREPARATION METHOD THEREFOR, AND APPLICATION THEREOF” (SHENZHEN SHENXIN BIOTECHNOLOGY CO., LTD., priority 2020, published 2023).

System: HEK293 cells
Experiment: Preliminary screening as DNA vectors, GFP transfection of HEK293 cells
Assay type: cell-based
Settings: amino lipid/DOPE liposome with 75 ng plasmid DNA (psin-EGFP-IRES-Puro); number of GFP-expressing cells divided by total nuclei (Hoechst)
Outline: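 Lipid + DOPE liposomes (NaOAc, pH 5.6) complexed w/ 75 ng psin-EGFP-IRES-Puro, 30 min RT; added to 3-5×10^4 HEK293/well, 37° C. Hoechst 0.2 μg/mL at 20-24 h, imaged after further 20-24 h. Efficiency = GFP+ cells / total nuclei.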

Row | Structure (SMILES) | Absolute DNA transfection efficiency in HEK293 cells
1 | CCCCCCCCCCCCSc1nc(NCCCCCCCCC)nc(NCCCN(C)C)n1 [S12N9 D6] | 37.0%
2 | CCCCCCCCCSc1nc(NCCN2CCCC2)nc(SCCCCCCCC)n1 [S8S9 D3] | 15.1%
3 | CCCCCCCCCSc1nc(NCCN2CCOCC2)nc(SCCCCCCCC)n1 [S8S9 D2] | 37.0%
4 | CCCCCCCCCCCCCCCSc1nc(NCCCN(C)C)nc(N(CCCCCCCCCCCC)CCCCCCCCCCCC)n1 [S15^2N12 D6] | 0.0%
5 | CCCCCCCCCCCCCCCCNc1nc(NCCCN(C)C)nc(SCCCCCCCCCCCCCCCC)n1 [S16N16 D6] | 0.1%
6 | CCCCCCCCCCCCSc1nc(NCCCCCCCC)nc(NCCN2CCCCC2)n1 [S12N8 D4] | 0.0%
7 | CCCCCCCCCCCNc1nc(NCCCN2CCN(C)CC2)nc(SCCCCCCCCC)n1 [S9N11 D9] | 49.3%
8 | CCCCCCCCCSc1nc(NCCCCCCC)nc(NCCN(C)C)n1 [S9N7 D1] | 36.0%
9 | CCCCCCCCCCCSc1nc(NCCN2CCOCC2)nc(SCCCCCC)n1 [S6S11 D2] | 18.7%
10 | CCCCCCCCCCCCCCSc1nc(NCCN(CC)CC)nc(SCCCCCC)n1 [S6S14 D7] | 4.7%
11 | CCCCCCCCCCCCCCSc1nc(NCCCCCCCCCCCCC)nc(NCCCN2CCN(C)CC2)n1 [S14N13 D9] | 1.4%
12 | CCCCCCCCCCCCCCCCCCNc1nc(NCCN(CC)CC)nc(SCCCCCCCCCCCCCCCC)n1 [S16N18 D7] | 0.0%
13 | CCCCCCCSc1nc(NCCN2CCOCC2)nc(SCCCCCCC)n1 [S7S7 D2] | 2.2%
14 | CCCCCCCCCSc1nc(NCCCCCC)nc(NCCCN2CCN(C)CC2)n1 [S9N6 D9] | 11.0%
15 | CCCCCCCCCNc1nc(NCCCN(C)C)nc(SCCCCCCC)n1 [S7N9 D6] | 25.9%
16 | CCCCCCCCCCCCNc1nc(NCCN(CC)CC)nc(SCCCCCC)n1 [S6N12 D7] | 2.2%
17 | CCCCCCCCCCCNc1nc(NCCN2CCOCC2)nc(SCCCCCC)n1 [S6N11 D2] | 0.2%
18 | CCCCCCCCCNc1nc(NCCN2CCOCC2)nc(SCCCCCCCCC)n1 [S9N9 D2] | 24.0%
19 | CCCCCCCCCCCCCCSc1nc(NCCCCCC)nc(NCCN(CC)CC)n1 [S14N6 D7] | 20.3%
20 | CCCCCCCCCCCSc1nc(NCCCCCCC)nc(NCCN2CCCCC2)n1 [S11N7 D4] | 4.6%
21 | CCCCCCCCCCCCSc1nc(NCCCCCCCC)nc(NCCN2CCCC2)n1 [S12N8 D3] | 1.5%
22 | CCCCCCCCCCCCCNc1nc(NCCN(CC)CC)nc(SCCCCCCC)n1 [S7N13 D7] | 3.1%
23 | CCCCCCCCCCCCNc1nc(NCC2CCN(C)CC2)nc(SCCCCCCCCCCCC)n1 [S12N12 D10] | 9.3%
24 | CCCCCCCCCCCCCCCCCCNc1nc(NCCN2CCN(C)CC2)nc(SCCCCCCC)n1 [S7N18 D5] | 8.2%

Row | Structure (SMILES) | Absolute DNA transfection efficiency in HEK293 cells
25 | CCCCCCCCCCCSc1nc(NCCCN2CCN(C)CC2)nc(SCCCCCC)n1 [S6S11 D9] | 16.8%
26 | CCCCCCCCCCCSc1nc(NCCCCCCCC)nc(NCCN2CCOCC2)n1 [S11N8 D2] | 18.6%
27 | CCCCCCCCCCCCN(CCCCCCCCCCCC)c1nc(NCCN2CCOCC2)nc(SCCCCCCC)n1 [S7^2N12 D2] | 0.0%
28 | CCCCCCCCCSc1nc(NCCCCCCCC)nc(NCCN2CCOCC2)n1 [S9N8 D2] | 13.9%
29 | CCCCCCCCNc1nc(NCC2CCN(C)CC2)nc(SCCCCCCC)n1 [S7N8 D10] | 9.5%
30 | CCCCCCCCCCCCCNc1nc(NCC2CCN(C)CC2)nc(SCCCCCCC)n1 [S7N13 D10] | 54.2%
31 | CCCCCCCCCCCCCCCNc1nc(NCCN2CCOCC2)nc(SCCCCCC)n1 [S6N15 D2] | 2.0%
32 | CCCCCCCCCCCCSc1nc(NCCCCCCC)nc(NCCN(CC)CC)n1 [S12N7 D7] | 3.4%
33 | CCCCCCCCCCCCCNc1nc(NCCN2CCCC2)nc(SCCCCCCCCCCCC)n1 [S12N13 D3] | 3.6%
34 | CCCCCCCCCCCCCCCCNc1nc(NCCN2CCOCC2)nc(SCCCCCCCCCCCC)n1 [S12N16 D2] | 0.0%
35 | CCCCCCCCCCCCCCCCNc1nc(NCC2CCN(C)CC2)nc(SCCCCCCCC)n1 [S8N16 D10] | 13.4%
36 | CCCCCCCCCCCCCCCNc1nc(NCCCN2CCOCC2)nc(SCCCCCCCCCCCC)n1 [S12N15 D8] | 0.0%
37 | CCCCCCCCCCCCCCCCCCSc1nc(NCCCCCCC)nc(NCCN2CCOCC2)n1 [S18N7 D2] | 3.2%
38 | CCCCCCCCCCCCCCCCCCSc1nc(NCCCCCCCCCCC)nc(NCCCN2CCOCC2)n1 [S18N11 D8] | 1.3%
39 | CCCCCCCCCCCCCCCSc1nc(NCCCCCCCCCCCC)nc(NCCN(CC)CC)n1 [S15N12 D7] | 5.9%
40 | CCCCCCCCCCCCCCCCCCNc1nc(NCCN2CCN(C)CC2)nc(SCCCCCCCCCCCCCCCCCC)n1 [S18N18 D5] | 0.0%
41 | CCCCCCCCCCCCCCCNc1nc(NCCN(C)C)nc(SCCCCCCCCC)n1 [S9N15 D1] | 29.8%
42 | CCCCCCCCCCCCCCCCSc1nc(NCCCCCCC)nc(NCCCN2CCN(C)CC2)n1 [S16N7 D9] | 9.8%
43 | CCCCCCCCCCCCCCCNc1nc(NCCN2CCOCC2)nc(SCCCCCCCCCCCCCCC)n1 [S15N15 D2] | 0.0%
44 | CCCCCCCCCCCCNc1nc(NCCN2CCCCC2)nc(SCCCCCCCCCCC)n1 [S11N12 D4] | 3.4%
45 | CCCCCCCCCCCCN(CCCCCCCCCCCC)c1nc(NCCCN(C)C)nc(SCCCCCCCCCCC)n1 [S11^2N12 D6] | 0.3%
46 | CCCCCCCCCCCCCNc1nc(NCCN2CCCCC2)nc(SCCCCCCCCCC)n1 [S10N13 D4] | 4.2%
47 | CCCCCCCCCCCCCCCSc1nc(NCCN2CCCCC2)nc(SCCCCCC)n1 [S6S15 D4] | 7.9%
48 | CCCCCCCCCCCCCCCCCCSc1nc(NCCCCCC)nc(NCCN2CCOCC2)n1 [S18N6 D2] | 5.9%

Row | Structure (SMILES) | Absolute DNA transfection efficiency in HEK293 cells
49 | CCCCCCCCCCCCCNc1nc(NCCN2CCOCC2)nc(SCCCCCCC)n1 [S7N13 D2] | 22.1%
50 | CCCCCCCCCCCCCCCCCCSc1nc(NCCCCCCCCCCCCCCCC)nc(NCCN2CCN(C)CC2)n1 [S18N16 D5] | 0.2%
51 | CCCCCCCCCCCCCCCCCCNc1nc(NCCCN2CCOCC2)nc(SCCCCCCCCCCCC)n1 [S12N18 D8] | 0.0%
52 | CCCCCCCCCCCCSc1nc(NCCCN2CCN(C)CC2)nc(SCCCCCC)n1 [S6S12 D9] | 9.4%
53 | CCCCCCCCCCCCCCCCNc1nc(NCCN(C)C)nc(SCCCCCCCCCC)n1 [S10N16 D1] | 7.8%
54 | CCCCCCCCCCCCCCCSc1nc(NCCCN(C)C)nc(SCCCCCCC)n1 [S7S15 D6] | 7.6%
55 | CCCCCCCCCCCCCCCCCCNc1nc(NCCN(C)C)nc(SCCCCCC)n1 [S6N18 D1] | 21.0%
56 | CCCCCCCCCCCCCCCCCCNc1nc(NCCN(CC)CC)nc(SCCCCCCCCCCCC)n1 [S12N18 D7] | 0.3%
57 | CCCCCCCCCCCCN(CCCCCCCCCCCC)c1nc(NCCN2CCN(C)CC2)nc(SCCCCCCCC)n1 [S8^2N12 D5] | 0.8%
58 | CCCCCCCCCCCCN(CCCCCCCCCCCC)c1nc(NCC2CCN(C)CC2)nc(SCCCCCCCC)n1 [S8^2N12 D10] | 0.8%
59 | CCCCCCCCCCCCCCCCSc1nc(NCCCN2CCN(C)CC2)nc(SCCCCCCC)n1 [S7S16 D9] | 2.3%
60 | CCCCCCCCCCCCCCCCSc1nc(NCCCCCCCCC)nc(NCCCN2CCN(C)CC2)n1 [S16N9 D9] | 9.5%
61 | CCCCCCCCCCCCCNc1nc(NCCCN2CCN(C)CC2)nc(SCCCCCCCCC)n1 [S9N13 D9] | 19.9%
62 | CCCCCCCCCCCCNc1nc(NCCN(C)C)nc(SCCCCCCC)n1 [S7N12 D1] | 18.2%
63 | CCCCCCCCCCSc1nc(NCC2CCN(C)CC2)nc(SCCCCCCCC)n1 [S8S10 D10] | 26.2%
64 | CCCCCCCCCNc1nc(NCC2CCN(C)CC2)nc(SCCCCCCC)n1 [S7N9 D10] | 15.0%
65 | CCCCCCCCCCCCCCCCSc1nc(NCCCCCCCC)nc(NCCCN2CCOCC2)n1 [S16N8 D8] | 16.5%
66 | CCCCCCCCCSc1nc(NCCCN2CCOCC2)nc(SCCCCCCCC)n1 [S8S9 D8] | 16.0%
67 | CCCCCCCCCCCCCCCSc1nc(NCCCCCCCCCCC)nc(NCC2CCN(C)CC2)n1 [S15N11 D10] | 16.6%
68 | CCCCCCCCCCCCN(CCCCCCCCCCCC)c1nc(NCCCN(C)C)nc(SCCCCCCCCCC)n1 [S10^2N12 D6] | 4.3%
69 | CCCCCCCCNc1nc(NCCN2CCCC2)nc(SCCCCCC)n1 [S6N8 D3] | 2.0%
70 | CCCCCCCCCCCCCCSc1nc(NCCCCCCCCCCCC)nc(NCCCN2CCOCC2)n1 [S14N12 D8] | 2.1%
71 | CCCCCCCCCSc1nc(NCCN(C)C)nc(SCCCCCCC)n1 [S7S9 D1] | 10.8%
72 | CCCCCCCCCCCCCCCCSc1nc(NCCCCCCC)nc(NCC2CCN(C)CC2)n1 [S16N7 D10] | 3.4%
